# According to patent EP4512806A1, “MOLECULAR GLUE DEGRADERS AND USES THEREOF” (Mablink Bioscience, priority 2023, dated 2025):
# How the values were obtained:
# CycK = target: T1, CycK (Homo sapiens, UniProt O75909); assay: CycK protein quantification by Western Blot in JIMT-1 cells; format: cell-based
# T1 construct: endogenous in cells; host or cells: JIMT-1
# Experimental: 1×10^6 JIMT-1 cells were plated in 3mL of DMEM/FBS 90:10 (v/v) in 6-well plates and incubated overnight. Cells were treated with the compound 2384 of the invention with or without the proteasome inhibitor MG-132 (MedChemExpress, Cat HY-13259) for 2h. Cells were harvested, and protein were extracted using complete RIPA buffer (RIPA buffer, 1 mM DTT, 1M NaF, 100 mM sodium orthovanadate, phosphatase inhibitor buffer and protease inhibitors) for 1 hour on ice. Lysate were centrifuged 15min at 12 000g at 4°C. and proteins were mixed with 4x Laemmli Sample Buffer (Bio-Rad), heated at 95 °C for 5 mins and separated by SDS PAGE (PROTEAN TGX Stain-Free Gels, Bio-Rad). Proteins were then transferred onto PVDF membrane (iBlot®2 PVDF stacks, Invitrogen) using the iBlot2 device (Invitrogen) and blocked with TBS buffer (Intercept® Blocking Buffer, LI-COR Biosciences). Primary antibodies were incubated overnight at 4°C and secondary antibodies (IRDye Infrared Dyes from LI-COR Biosciences) 1 hour at room temperature. Used primary antibody were: anti-CycK (cat#A301-939A, Bethyl Laboratories, dil. 1:1000) and anti-β-actin (cat#A5441, Sigma-Aldrich, dil. 1:5000). Membranes were scanned using a c500 Imaging System (Azure Biosystems) and densitometric quantification were performed using imaged software. Protein levels were normalized against β-actin.
# Cyclin K = assay: CycK mRNA RT-qPCR in JIMT-1 cells; format: cell-based, human; conditions: 1µM final concentration, 2h
# Experimental: 1×10^6 JIMT-1 cells were plated in 3mL of DMEM/FBS 90:10 (v/v) in 6-well plates and incubated overnight. Cells were treated with the compound 2384 of the invention, with CR8 (a known molecular glue degrader that depletes CycK) or with the proteasome inhibitor MG-132 (MedChemExpress, Cat HY-13259) for 2h. RNA was extracted using the QIAamp RNeasy Mini Kit (cat#74106, Qiagen) according to the manufacturer's protocol. Reverse transcription was performed using SuperScripr™ IV reverse transcriptase (cat#LT02241, Invitrogen). Quantitative PCR was performed using a No ROX Sybr Master Mix in the LightCycler 480 Real-Time PCR system (Roche Life Science).
# Cyclin K forward ([…]) and reverse ([…]) primers were purchased from Eurogentec. Gene expression was normalized using ribosomal 28S as the housekeeping gene.
# JIMT-1 cells = assay: Cell cycle arrest assessment (propidium iodide, flow cytometry); format: cell-based, human; conditions: 24h, 2, 5, 10, and 50nM
# Experimental: 1×10^6 JIMT-1 cells were plated in 3mL of DMEM/FBS 90:10 (v/v) in 6-well plates and incubated overnight. Cells were treated with the compound 2384 of the invention or with CR8 for 24h. Cells were then harvested and washed three times with PBS. Cells were suspended into 300µL of propidium iodide working solution (0.05mg/mL) and incubated for 45 minutes at 4°C in the dark. Analysis was performed using a BD Fortessa flow cytometer controlled by BD FACSDiva software (BD Biosciences) and data were analyzed using FlowJo software (BD Bioscience).
# [1] = system: panel of human cancer cell lines; assay: In vitro cytotoxicity assay (MTT), panel of cell lines; format: cell-based
# Excerpt: Human cancer cell lines used in the present project were purchased from either the American Type Culture Collection (ATCC), The Leibniz Institute DSMZ German Collection of Microorganisms and Cell Cultures GmbH (DSMZ) or the European Collection of Authenticated Cell Cultures (ECACC). For use in experiments, cells were cultivated following good and established cell culture practices, following instructions from the original ATCC/DSMZ/ECACC supplier for cell culture media & supplement, cryopreservation, and subculturing procedures. Cells were incubated under a 5% CO2 atmosphere at 37°C for no longer than 2 months.
# In vitro cytotoxicity of compounds of the disclosure was assessed on several cancerous human cell lines. Cells were plated in 96-well plates at an appropriate density depending on the cell line (between 1000 and 10 000 cells/well in 100µL of appropriate culture media) and incubated at 37°C for 24 hours. Serial dilutions of the tested compound previously dissolved in culture media (50µL) were added, and incubation was carried at 37°C out for 6 days. MTT (5mg/mL in PBS, 20µL, Sigma-Aldrich) was added into the wells, and incubation was continued for 1 to 4 hours at 37°C. Culture media was then carefully removed, and well content was homogeneously dissolved with acidified isopropanol. Absorbance values were measured on a microplate reader using a wavelength of 570 nm (with a reference wavelength of 690 nm). The IC50 concentration values compared to untreated control cells were determined using inhibition dose response curve fitting (GraphPad Prism 9). Exatecan mesylate (cat#HY-13631A) and CR8 (CAS# 294646-77-8; cat#HY-18340) were purchased from MedChemExpress (China).
# T1 sequence (O75909 whole entry): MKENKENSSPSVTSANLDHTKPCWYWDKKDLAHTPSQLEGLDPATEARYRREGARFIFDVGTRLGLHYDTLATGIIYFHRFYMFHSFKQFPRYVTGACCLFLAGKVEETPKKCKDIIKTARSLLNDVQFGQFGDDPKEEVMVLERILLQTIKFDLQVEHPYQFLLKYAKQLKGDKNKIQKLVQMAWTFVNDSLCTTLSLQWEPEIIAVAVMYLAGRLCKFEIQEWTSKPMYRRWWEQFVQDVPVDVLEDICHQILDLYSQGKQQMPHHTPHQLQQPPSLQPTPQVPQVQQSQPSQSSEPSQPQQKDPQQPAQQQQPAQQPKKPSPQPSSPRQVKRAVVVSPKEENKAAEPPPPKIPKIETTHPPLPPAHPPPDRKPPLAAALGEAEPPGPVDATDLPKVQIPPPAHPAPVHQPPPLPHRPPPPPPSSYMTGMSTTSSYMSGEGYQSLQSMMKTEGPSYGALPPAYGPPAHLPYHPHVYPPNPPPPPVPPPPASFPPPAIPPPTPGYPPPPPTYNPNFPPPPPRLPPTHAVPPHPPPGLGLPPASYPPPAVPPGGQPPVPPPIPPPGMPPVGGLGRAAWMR
# T1 sequence (Q9NYV4 whole entry partner): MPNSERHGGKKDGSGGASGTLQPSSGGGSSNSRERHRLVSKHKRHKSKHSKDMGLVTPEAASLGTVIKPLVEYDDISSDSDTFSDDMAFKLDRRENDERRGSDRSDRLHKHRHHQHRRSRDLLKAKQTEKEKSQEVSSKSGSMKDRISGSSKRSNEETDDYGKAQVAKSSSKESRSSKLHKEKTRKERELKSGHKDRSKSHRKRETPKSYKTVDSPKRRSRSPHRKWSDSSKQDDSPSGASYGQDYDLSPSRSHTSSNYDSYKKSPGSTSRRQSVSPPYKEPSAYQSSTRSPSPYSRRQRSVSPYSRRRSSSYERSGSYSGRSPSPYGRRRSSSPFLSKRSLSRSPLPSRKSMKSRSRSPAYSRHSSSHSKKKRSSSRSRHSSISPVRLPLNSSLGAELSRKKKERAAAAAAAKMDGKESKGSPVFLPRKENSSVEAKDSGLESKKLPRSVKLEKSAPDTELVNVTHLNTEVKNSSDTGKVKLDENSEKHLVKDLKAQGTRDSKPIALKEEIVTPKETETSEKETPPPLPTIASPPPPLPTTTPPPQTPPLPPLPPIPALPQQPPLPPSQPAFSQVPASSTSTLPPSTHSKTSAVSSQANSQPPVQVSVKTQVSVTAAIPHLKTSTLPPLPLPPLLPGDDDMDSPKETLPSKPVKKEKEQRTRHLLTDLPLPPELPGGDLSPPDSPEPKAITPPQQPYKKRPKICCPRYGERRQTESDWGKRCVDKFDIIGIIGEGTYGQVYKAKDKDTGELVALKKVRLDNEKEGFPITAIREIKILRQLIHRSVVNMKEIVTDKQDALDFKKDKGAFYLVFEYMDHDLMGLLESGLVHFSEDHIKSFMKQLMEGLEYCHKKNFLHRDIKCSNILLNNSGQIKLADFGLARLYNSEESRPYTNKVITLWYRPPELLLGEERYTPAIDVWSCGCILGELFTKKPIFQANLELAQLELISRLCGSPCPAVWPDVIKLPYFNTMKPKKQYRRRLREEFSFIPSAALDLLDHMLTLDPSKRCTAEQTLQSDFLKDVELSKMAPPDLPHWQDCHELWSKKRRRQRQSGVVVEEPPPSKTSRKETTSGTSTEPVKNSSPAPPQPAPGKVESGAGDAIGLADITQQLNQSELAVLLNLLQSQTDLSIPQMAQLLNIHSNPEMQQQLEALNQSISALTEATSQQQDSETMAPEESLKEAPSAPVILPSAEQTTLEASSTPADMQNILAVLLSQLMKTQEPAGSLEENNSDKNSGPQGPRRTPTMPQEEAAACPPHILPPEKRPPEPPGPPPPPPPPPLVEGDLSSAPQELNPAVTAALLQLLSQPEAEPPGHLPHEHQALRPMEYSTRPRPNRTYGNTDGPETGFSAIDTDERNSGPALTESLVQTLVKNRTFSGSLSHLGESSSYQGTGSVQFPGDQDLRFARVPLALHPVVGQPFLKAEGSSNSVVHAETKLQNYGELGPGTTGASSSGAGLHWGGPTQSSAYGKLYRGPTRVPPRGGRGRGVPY
# T1 sequence (Q16531 whole entry partner): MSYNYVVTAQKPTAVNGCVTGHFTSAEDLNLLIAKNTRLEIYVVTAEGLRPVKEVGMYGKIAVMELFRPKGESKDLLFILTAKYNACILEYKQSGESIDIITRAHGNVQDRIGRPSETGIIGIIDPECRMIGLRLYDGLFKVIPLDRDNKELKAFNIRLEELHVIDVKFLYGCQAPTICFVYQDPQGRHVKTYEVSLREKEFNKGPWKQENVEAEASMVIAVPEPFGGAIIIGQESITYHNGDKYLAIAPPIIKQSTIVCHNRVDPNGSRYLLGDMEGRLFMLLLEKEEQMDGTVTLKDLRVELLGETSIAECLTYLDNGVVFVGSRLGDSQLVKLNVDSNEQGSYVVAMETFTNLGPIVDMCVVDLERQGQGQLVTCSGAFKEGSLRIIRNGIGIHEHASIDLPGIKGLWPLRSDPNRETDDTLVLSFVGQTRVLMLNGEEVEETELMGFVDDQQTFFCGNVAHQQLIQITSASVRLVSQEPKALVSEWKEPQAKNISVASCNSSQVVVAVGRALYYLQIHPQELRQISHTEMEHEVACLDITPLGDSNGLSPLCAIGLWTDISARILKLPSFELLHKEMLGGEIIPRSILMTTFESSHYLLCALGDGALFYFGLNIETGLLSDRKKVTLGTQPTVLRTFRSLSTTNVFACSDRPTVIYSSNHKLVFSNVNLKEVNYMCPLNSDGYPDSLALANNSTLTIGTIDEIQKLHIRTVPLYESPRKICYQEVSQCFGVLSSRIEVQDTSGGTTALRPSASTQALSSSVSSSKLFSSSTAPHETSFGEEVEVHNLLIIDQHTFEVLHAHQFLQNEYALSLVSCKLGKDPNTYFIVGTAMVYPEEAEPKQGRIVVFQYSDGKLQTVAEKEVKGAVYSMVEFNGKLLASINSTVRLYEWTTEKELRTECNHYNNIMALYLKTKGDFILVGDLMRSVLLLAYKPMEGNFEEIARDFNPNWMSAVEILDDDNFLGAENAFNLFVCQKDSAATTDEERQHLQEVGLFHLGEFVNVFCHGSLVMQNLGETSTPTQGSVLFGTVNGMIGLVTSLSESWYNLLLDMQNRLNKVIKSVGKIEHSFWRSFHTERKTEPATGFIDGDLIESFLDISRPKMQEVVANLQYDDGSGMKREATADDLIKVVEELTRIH
structure (smiles),measurement,setting,value
N[C@H]1CC[C@H](Nc2nc(NCc3ccc(-c4ccccn4)cc3)n3ncc(Br)c3n2)CC1 [Compound 2384],CycK protein content,"CycK; 1µM final concentration, 2h",decreased CycK protein content
same,"minimum effective dose for CycK degradation, times lower than that of CR8",CycK; 2h treatment,approximately 10 times
same,concentration inducing complete CycK degradation,"CycK; 2h treatment, decreasing doses",10 nM
same,CycK mRNA level,Cyclin K,not at the CycK mRNA level
same,cell cycle analysis (propidium iodide),JIMT-1 cells,arrest in the G2/M phase
same,in vitro cytotoxic potency,"[1]; panel of human cancer cell lines, in words",low nanomolar potencies
same,cytotoxic potency compared to isopropyl counterpart,"[1]; side-by-side comparison, Figures 1A/1B and 2A/2B",systematically more potent
